Data published in PMC7614683, “A small molecule PI3Kα activator for cardioprotection and neuroregeneration” (Nature, 2023).

Assays:
Assay in all cases: SelectScreen LanthaScreen Binding
Conditions in all cases: 1000 nM
[1] = target: T1, STK17A (DRAK1) (Homo sapiens, UniProt Q9UEE5)
T1 sequence (Q9UEE5 1-414): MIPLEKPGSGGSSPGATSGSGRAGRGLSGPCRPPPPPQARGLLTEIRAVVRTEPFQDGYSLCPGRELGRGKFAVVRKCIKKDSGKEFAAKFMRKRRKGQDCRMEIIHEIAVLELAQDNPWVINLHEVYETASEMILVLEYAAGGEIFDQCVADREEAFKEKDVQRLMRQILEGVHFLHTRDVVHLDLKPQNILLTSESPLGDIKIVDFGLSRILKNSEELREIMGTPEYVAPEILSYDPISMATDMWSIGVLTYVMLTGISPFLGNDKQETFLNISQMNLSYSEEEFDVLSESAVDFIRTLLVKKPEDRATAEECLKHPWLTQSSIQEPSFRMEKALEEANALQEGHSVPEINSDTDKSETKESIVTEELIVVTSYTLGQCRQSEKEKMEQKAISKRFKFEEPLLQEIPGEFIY
Description: (§1) 133 protein kinases and 7 lipid kinases were counterscreened, with 1938 used at 1 μM, using the Adapta, Lantha and Z-LYTE assays (SelectScreen Kinase Profiling Service; Thermofisher – experimental details of these assays can be found here: https://www.thermofisher.com/uk/en/home/industrial/pharma-biopharma/drug-discovery-development/target-and-lead-identification-and-validation/kinasebiology/kinase-activity-assays.html. The tree represention in KinMap[59] generated courtesy of Cell Signaling Technology, Inc. (www.cellsignal.com). mTORC1 (mTOR/RAPTOR/LST8) protein complex and ATM kinase and substrates were produced as previously described[57],[60]. Screening of 1938 was conducted using SuperSep Phos-Tag 50 μmol/l 100 x 100 x 6.6 mm 17-well (192-18001/199-18011) gels. For ATM assays, 100 nM ATM was incubated for 30 min at 30°C with 5 μM GST-p53 and 1 mM ATP, in the absence or presence of 200 μM 1938 in ATM Kinase Buffer (50 mM HEPES pH 7.5, 100 mM NaCl, 10% glycerol, 2 mM […], 5 mM MgCl2). As a positive control for ATM activation, the same reaction was carried out with 100 nM ATM/5 μM GST-p53/1 mM ATP in the presence of 100 nM Mre11-Rad50-Nbs1 (MRN) complex, a known activator of ATM[61]. For mTORC1 assays, 50 nM mTORC1 complex (mTOR/LST8/RAPTOR) was incubated for 3 h at 30°C with 15 μM 4E-BP1, 10 mM MgCl2 and 250 μM ATP, in the absence or presence of 200 μM 1938. As a ‘positive’ control, a higher concentration (150 nM) of mTORC1 complex (mTOR/LST8/RAPTOR) was incubated for 3 h at 30°C with 15 μM 4E-BP1, 10 mM MgCl2 and 250 μM ATP. Kinase reactions were quenched by addition of SDS-PAGE Loading Buffer (as per manufacturer’s instructions) and freezing at -20°C before being run on the Phos-tag gels at 150 V for 90 min. Gels were then stained using InstantBlue™ Coomassie, and quantified using BioRad Image Lab Software. Kinase assays were carried out in triplicate.

[2] = target: RET V804M (Homo sapiens, UniProt P07949, V804M)
Sequence of RET V804M (P07949 29-1114 V804M): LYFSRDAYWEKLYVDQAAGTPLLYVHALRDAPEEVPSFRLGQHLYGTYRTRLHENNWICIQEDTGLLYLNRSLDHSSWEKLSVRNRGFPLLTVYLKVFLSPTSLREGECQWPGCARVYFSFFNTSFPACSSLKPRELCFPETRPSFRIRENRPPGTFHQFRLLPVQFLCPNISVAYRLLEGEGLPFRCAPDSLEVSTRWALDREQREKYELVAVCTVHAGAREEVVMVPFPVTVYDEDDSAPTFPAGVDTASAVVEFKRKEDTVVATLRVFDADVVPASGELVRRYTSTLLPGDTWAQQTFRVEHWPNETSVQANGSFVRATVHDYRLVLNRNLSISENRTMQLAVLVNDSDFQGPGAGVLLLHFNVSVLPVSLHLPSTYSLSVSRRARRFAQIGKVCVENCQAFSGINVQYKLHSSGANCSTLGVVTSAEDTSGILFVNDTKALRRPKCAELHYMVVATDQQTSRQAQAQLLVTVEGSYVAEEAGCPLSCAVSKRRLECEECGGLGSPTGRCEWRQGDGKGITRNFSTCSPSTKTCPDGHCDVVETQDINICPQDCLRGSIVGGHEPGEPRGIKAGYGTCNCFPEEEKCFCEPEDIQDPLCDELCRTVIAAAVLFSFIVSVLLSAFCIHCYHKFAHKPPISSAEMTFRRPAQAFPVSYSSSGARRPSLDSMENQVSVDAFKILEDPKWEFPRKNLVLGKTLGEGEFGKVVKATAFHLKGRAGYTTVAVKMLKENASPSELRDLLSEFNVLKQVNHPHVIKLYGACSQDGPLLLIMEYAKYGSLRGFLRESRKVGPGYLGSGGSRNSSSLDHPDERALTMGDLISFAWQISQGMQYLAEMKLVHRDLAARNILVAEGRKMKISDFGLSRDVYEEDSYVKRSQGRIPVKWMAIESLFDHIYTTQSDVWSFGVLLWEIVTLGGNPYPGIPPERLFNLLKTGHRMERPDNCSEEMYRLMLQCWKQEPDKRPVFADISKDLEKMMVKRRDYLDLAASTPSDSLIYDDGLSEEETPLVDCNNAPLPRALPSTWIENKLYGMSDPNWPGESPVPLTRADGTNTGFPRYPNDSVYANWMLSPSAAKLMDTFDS
Description: as §1

[3] = target: AAK1 (Homo sapiens, UniProt Q2M2I8)
Sequence of AAK1 (Q2M2I8 whole entry): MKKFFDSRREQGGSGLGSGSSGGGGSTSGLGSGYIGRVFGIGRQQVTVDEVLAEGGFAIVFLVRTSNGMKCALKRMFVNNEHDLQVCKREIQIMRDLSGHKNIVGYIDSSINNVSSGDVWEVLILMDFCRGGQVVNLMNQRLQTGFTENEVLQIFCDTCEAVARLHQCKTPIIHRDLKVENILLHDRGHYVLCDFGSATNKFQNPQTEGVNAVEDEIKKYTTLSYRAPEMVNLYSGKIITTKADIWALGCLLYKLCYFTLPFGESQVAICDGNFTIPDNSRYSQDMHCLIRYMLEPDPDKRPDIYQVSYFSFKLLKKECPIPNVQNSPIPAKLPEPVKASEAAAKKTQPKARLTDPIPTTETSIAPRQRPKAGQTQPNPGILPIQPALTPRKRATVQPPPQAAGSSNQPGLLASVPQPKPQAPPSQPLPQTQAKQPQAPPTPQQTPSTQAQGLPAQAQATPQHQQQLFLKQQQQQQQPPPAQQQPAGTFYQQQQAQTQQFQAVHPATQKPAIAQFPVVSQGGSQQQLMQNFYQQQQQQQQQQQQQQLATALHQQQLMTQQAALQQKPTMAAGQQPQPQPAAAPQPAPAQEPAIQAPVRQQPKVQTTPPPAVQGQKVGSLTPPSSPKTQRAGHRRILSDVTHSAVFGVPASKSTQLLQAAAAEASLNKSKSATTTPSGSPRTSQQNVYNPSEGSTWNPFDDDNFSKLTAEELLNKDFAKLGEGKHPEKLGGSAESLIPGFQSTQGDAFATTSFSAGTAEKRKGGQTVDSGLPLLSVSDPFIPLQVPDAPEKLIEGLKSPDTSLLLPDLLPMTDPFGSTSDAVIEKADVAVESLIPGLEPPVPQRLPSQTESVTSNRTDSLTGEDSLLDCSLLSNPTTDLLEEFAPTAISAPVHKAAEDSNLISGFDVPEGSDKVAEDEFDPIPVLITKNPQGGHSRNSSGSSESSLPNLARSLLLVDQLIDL
Description: as §1

[4] = target: MYLK (MLCK) (Homo sapiens, UniProt Q15746)
Sequence of MYLK (MLCK) (Q15746 whole entry): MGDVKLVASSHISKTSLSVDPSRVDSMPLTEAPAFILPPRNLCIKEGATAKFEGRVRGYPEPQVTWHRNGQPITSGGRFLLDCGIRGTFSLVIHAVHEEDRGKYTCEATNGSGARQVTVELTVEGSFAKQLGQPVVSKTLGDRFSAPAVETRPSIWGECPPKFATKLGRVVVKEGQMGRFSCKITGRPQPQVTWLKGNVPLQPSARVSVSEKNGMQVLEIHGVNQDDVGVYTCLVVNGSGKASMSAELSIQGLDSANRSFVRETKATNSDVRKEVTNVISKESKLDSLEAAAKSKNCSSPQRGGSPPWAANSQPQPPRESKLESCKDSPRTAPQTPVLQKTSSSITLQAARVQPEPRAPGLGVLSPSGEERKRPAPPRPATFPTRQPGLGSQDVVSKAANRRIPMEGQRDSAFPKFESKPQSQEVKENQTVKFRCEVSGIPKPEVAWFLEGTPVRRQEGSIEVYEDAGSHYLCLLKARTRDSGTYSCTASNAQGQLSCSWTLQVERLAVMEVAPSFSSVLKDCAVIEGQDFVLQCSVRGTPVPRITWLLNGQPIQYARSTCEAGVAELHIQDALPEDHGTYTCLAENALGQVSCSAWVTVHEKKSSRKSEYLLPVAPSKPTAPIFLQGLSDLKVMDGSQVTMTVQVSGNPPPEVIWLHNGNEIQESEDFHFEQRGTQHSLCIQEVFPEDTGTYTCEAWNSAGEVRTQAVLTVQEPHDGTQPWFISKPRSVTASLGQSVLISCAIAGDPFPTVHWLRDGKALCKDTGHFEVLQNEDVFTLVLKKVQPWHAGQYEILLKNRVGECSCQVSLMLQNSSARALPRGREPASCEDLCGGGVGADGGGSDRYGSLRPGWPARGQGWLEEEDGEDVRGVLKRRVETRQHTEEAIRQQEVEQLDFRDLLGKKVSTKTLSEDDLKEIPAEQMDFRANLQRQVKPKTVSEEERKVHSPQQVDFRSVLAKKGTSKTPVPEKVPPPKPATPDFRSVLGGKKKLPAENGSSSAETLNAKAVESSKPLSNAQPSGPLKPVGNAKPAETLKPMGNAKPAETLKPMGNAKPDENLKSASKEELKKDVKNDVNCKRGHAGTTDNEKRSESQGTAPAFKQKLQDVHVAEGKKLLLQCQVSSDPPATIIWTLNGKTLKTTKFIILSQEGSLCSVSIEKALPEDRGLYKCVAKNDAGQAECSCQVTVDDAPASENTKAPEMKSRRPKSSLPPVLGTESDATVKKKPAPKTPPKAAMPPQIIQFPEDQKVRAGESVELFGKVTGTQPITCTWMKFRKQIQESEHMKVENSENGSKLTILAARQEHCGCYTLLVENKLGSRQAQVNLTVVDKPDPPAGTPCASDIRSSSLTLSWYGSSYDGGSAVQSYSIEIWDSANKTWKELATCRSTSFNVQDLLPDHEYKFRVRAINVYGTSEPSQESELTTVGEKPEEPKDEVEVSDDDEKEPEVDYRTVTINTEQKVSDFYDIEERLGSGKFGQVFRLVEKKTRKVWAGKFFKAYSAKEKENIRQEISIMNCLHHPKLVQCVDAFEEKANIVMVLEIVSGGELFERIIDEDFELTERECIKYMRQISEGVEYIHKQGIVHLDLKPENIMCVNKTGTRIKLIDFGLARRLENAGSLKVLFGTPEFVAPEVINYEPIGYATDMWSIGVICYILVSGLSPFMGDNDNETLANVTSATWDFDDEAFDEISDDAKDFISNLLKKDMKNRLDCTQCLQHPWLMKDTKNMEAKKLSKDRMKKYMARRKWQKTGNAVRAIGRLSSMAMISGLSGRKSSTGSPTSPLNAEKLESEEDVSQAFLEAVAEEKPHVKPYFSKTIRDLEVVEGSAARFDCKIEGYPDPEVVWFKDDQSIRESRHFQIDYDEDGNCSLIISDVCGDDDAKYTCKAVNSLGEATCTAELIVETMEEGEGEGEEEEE
Description: as §1

[5] = target: T2, TGFBR1 (ALK5) (Homo sapiens, UniProt P36897)
T2 sequence (P36897 34-503): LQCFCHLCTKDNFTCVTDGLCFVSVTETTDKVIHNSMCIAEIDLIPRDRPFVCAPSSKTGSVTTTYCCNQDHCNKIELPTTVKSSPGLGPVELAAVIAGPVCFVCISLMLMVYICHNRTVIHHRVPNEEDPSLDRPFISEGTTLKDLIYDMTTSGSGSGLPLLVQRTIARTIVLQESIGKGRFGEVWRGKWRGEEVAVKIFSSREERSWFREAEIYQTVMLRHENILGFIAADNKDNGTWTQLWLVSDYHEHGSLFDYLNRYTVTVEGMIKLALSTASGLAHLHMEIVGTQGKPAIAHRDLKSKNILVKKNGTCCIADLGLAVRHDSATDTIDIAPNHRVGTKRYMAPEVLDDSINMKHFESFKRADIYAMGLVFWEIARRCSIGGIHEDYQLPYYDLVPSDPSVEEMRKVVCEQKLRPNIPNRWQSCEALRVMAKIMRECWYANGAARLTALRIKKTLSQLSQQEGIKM
Description: as §1

[6] = target: T3, DYRK2 (Homo sapiens, UniProt Q92630)
T3 sequence (Q92630 1-601): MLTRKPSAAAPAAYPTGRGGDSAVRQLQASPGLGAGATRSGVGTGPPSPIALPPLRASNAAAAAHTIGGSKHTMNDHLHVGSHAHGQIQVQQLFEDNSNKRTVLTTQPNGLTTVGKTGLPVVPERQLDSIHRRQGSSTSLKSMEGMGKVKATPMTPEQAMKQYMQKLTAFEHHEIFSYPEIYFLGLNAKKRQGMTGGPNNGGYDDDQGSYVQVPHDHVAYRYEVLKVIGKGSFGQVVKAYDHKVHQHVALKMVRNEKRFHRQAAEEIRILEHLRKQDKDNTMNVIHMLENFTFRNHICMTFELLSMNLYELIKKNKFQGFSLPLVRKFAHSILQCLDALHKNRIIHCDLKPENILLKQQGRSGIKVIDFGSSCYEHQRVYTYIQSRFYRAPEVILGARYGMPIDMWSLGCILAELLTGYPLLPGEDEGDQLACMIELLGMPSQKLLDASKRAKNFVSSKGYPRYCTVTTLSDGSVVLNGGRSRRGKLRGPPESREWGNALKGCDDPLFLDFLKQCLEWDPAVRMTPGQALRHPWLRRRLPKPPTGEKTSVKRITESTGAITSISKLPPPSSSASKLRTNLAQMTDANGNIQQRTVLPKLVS
Description: as §1

How did the “% Displacement Point 1” value [1] turn out when CCN1CCN(c2ccc(Nc3cc(Nc4cccc5c4N(C(C)=O)CC5)ccn3)cc2)CC1 [Compound 1938] was run?
The value was 2.26%.

And the “% Displacement Point 2” value [1]?
Its value is 10%.

What about the “% Displacement mean” value [1] of the same compound?
The value was 6.32%.

What about the “% Displacement Point 1” value [2] of the same compound?
Its value is 1.24%.

What about the “% Displacement Point 2” value [2] of the same compound?
The value was -3%.

What about the “% Displacement mean” value [2] of the same compound?
The value was -0.94%.

And the “% Displacement Point 1” value [3]?
The value was 26%.

And the “% Displacement Point 2” value [3]?
The value was 25%.

And the “% Displacement mean” value [3]?
Its value is 25%.

And the “% Displacement Point 1” value [4]?
Its value is 1.85%.

And the “% Displacement Point 2” value [4]?
The value was 2.24%.

What about the “% Displacement mean” value [4] of the same compound?
Its value is 2%.

And the “% Displacement Point 1” value [5]?
Its value is 19%.

What about the “% Displacement Point 2” value [5] of the same compound?
The value was 22%.

And the “% Displacement mean” value [5]?
Its value is 21%.

What about the “% Displacement Point 1” value [6] of the same compound?
The value was 23%.

What about the “% Displacement Point 2” value [6] of the same compound?
The value was 1%.

And the “% Displacement mean” value [6]?
The value was 12%.
